Our source for the IC50 and melting point values is US6426352B1, “Sulfonamide inhibitors of farnesyl-protein transferase” (Schering Corporation, priority 1997, dated 2002).

Structures are written as SMILES.

The target of series [1] is T1, partially purified rat brain farnesyl protein transferase (FPT) (Rattus norvegicus, UniProt Q02293+Q04631).
T1 construct: partially purified rat brain farnesyl protein transferase (FPT); from tissue; host or cells: rat brain
Kind of series: In vitro enzyme assay: inhibition of Ras-CVLS farnesylation by farnesyl protein transferase (H-ras FPT). Type of series: biochemical. On the procedure: 1. In vitro enzyme assays: FPT IC50 (inhibition of farnesyl protein transferqase, in vitro enzyme assay) are determined by the methods disclosed in […] or WO 95/10516.

Series [2] relates to Ras processing in COS cells. The series can be described thus: Cell-based assay: COS cells activity, inhibition of Ras processing. As to the method: 2. Cell-based assay. COS IC50 values refer to the COS cells activity inhibition of Ras processing, are determined by the methods disclosed in […] or WO 95/10516.

By IC50 is commonly meant the concentration that inhibits the measured activity by half. For orientation: melting point means the temperature of the solid-liquid transition. In the case of `CS(=O)(=O)N1CCC(C2c3ncc(Br)cc3CCc3cc(Cl)cc(Cl)c32)CC1` (single isomer, unassigned; (+)) [Example 1, (+)-4-(3-Bromo-8,10-dichloro-6,11-dihydro-5H-benzo[5,6]cyclohepta[1,2-b]pyridin-11-yl)-1-(methylsulfonyl)pipiridine], the melting point was in the range of 160 to 163 °C. Further, the IC50 in series [1] is 0.008 µM. The IC50 in series [2] was 0.42 µM. In turn, `CN(C)S(=O)(=O)N1CCC(C2c3ncc(Br)cc3CCc3cc(Cl)cc(Cl)c32)CC1` (single isomer, unassigned; (+)) [Example 2, (+)-4-(3-Bromo-8,10-dichloro-6,11-dihydro-5H-benzo[5,6,]cyclohepta[1,2-b]pyridin-11-yl)-N-N-dimethyl-1-piperidinesulfonamide] showed a melting point of 202 to 203 °C. In addition, the IC50 in series [1] amounted to 0.164 µM. As to `NS(=O)(=O)N1CCC(C2c3ncc(Br)cc3CCc3cc(Cl)cc(Cl)c32)CC1` (single isomer, unassigned; (+)) [Example 3, (+)-4-(3-Bromo-8,10-dichloro-6,11-dihydro-5H-benzo[5,6]cyclohepta[1,2-b]pyridin-11-yl)-1-(aminosulfonyl)piperidine], the melting point is 133 to 134 °C. In series [1], the half-maximal inhibitory concentration (IC50) was 0.026 µM. The molecule `CS(=O)(=O)N1CCC(C2c3ncc(Br)cc3CCc3cc(Cl)cc(Br)c32)CC1` (single isomer, unassigned; (+)) [Example 4, (+)-4-(3,10-Dibromo-8-chloro-11-dihydro-5H-benzo[5,6]cyclohepta[1,2-b]pyridin-11-yl)-1-(methylsulfonyl)pipiridine] had a melting point of 216 to 217 °C. In addition, the midpoint of inhibition in series [1], the IC50, lay at 0.007 µM. For the same molecule, the half-maximal inhibitory concentration (IC50) in series [2] was 0.015 µM. Consider `CCS(=O)(=O)N1CCC(C2c3ncc(Br)cc3CCc3cc(Cl)cc(Br)c32)CC1` (single isomer, unassigned; (+)) [Example 5, (+)-4-(3,10-Dibromo-8-chloro-11-dihydro-5H-benzo[5,6]cyclohepta[1,2-b]pyridin-11-yl)-1-(ethylsulfonyl)pipiridine], for which the melting point was 202 to 203 °C. The same molecule yielded an IC50 in series [1] of 0.0154 µM. For `CCCS(=O)(=O)N1CCC(C2c3ncc(Br)cc3CCc3cc(Cl)cc(Br)c32)CC1` (single isomer, unassigned; (+)) [Example 6, (+)-4-(3,10-Dibromo-8-chloro-11-dihydro-5H-benzo[5,6]cyclohepta[1,2-b]pyridin-11-yl)-1-(propylsulfonyl)pipiridine], in that order: 97 to 98 °C and 0.032 µM.

As for `CC(C)S(=O)(=O)N1CCC(C2c3ncc(Br)cc3CCc3cc(Cl)cc(Br)c32)CC1` (single isomer, unassigned; (+)) [Example 7, (+)-4-(3,10-Dibromo-8-chloro-11-dihydro-5H-benzo[5,6]cyclohepta[1,2-b]pyridin-11-yl)-1-(isopropylsulfonyl)pipiridine], the melting point is 203 to 205 °C. The same molecule yielded an IC50 in series [1] of 0.11 µM. In the case of `CCCCS(=O)(=O)N1CCC(C2c3ncc(Br)cc3CCc3cc(Cl)cc(Br)c32)CC1` (single isomer, unassigned; (+)) [Example 8, (+)-4-(3,10-Dibromo-8-chloro-11-dihydro-5H-benzo[5,6]cyclohepta[1,2-b]pyridin-11-yl)-1-(butylsulfonyl)pipiridine], the melting point was 73 to 74 °C. In addition, half-maximal inhibition in series [1] (IC50) required 0.32 µM. For `O=S(=O)(N1CCC(C2c3ncc(Br)cc3CCc3cc(Cl)cc(Br)c32)CC1)C(F)(F)F` (single isomer, unassigned; (+)) [Example 9, (+)-4-(3,10-Dibromo-8-chloro-11-dihydro-5H-benzo[5,6]cyclohepta[1,2-b]pyridin-11-yl)-1-(trifluoromethylsulfonyl)pipiridine], in that order: 111 to 112 °C and 0.034 µM.

As for `O=S(=O)(CC(F)(F)F)N1CCC(C2c3ncc(Br)cc3CCc3cc(Cl)cc(Br)c32)CC1` (single isomer, unassigned; (+)) [Example 10, (+)-4-(3,10-Dibromo-8-chloro-11-dihydro-5H-benzo[5,6]cyclohepta[1,2-b]pyridin-11-yl)-1-(trifluoroethylsulfonyl)pipiridine], the melting point lay within 174 to 175 °C. The molecule further showed a concentration for half-maximal inhibition (IC50) in series [1] of 0.089 µM.

In turn, `C=CS(=O)(=O)N1CCC(C2c3ncc(Br)cc3CCc3cc(Cl)cc(Br)c32)CC1` (single isomer, unassigned; (+)) [Example 11, (+)-4-(3,10-Dibromo-8-chloro-11-dihydro-5H-benzo[5,6]cyclohepta[1,2-b]pyridin-11-yl)-1-(vinylsulfonyl)pipiridine] registered a half-inhibitory concentration (IC50) in series [1] of 0.032 µM. This counts as double-digit nanomolar. Still for that read-out and setting: the value for `O=S(=O)(c1ccccc1)N1CCC([C@H]2c3ncc(Br)cc3CCc3cc(Cl)cc(Br)c32)CC1` [Example 12, (+)-4-(3,10-Dibromo-8-chloro-6,11-dihydro-5H-benzo[5,6]cyclohepta[1,2-b]pyridin-11(R)-yl)-1-(phenylsulfonyl)pipiridine] was 0.179 µM; that for `Cn1cnc(S(=O)(=O)N2CCC([C@H]3c4ncc(Br)cc4CCc4cc(Cl)cc(Br)c43)CC2)c1` [Example 13, (+)-4-(3,10-Dibromo-8-chloro-6,11-dihydro-5H-benzo[5,6]cyclohepta[1,2-b]pyridin-11(R)-yl)-1-[(1-methyl-1H-imidazol-4-yl)sulfonyl]pipiridine] was 0.085 µM; that for `O=S(=O)(c1ccc(-c2ccon2)s1)N1CCC([C@H]2c3ncc(Br)cc3CCc3cc(Cl)cc(Br)c32)CC1` [Example 14, (+)-4-(3,10-Dibromo-8-chloro-6,11-dihydro-5H-benzo[5,6]cyclohepta[1,2-b]pyridin-11(R)-yl)-1-[(5-(3-isoxazolyl)-2-thienyl]sulfonyl]pipiridine] was 0.276 µM.
